Experimental data taken from US20080119491A1, “AMIDINOHETEROCYCLES AS MODULATORS OF INDOLEAMINE 2,3-DIOXYGENASE” (INCYTE CORPORATION, priority 2006, published 2008).

What follows are compounds tested against T1, Human indoleamine 2,3-dioxygenasae (IDO) (Homo sapiens, UniProt P14902) (assay: Human indoleamine 2,3-dioxygenase (IDO) enzyme assay). Conditions: 95 nM IDO, 2 mM D-Trp, pH 6.5, room temperature.
T1 construct: His tag (N); made in house; host or cells: E. coli
Format: biochemical
Experimental: Human indoleamine 2,3-dioxygenasae (IDO) with an N-terminal His tag was expressed in E. coli and purified to homogeneity. IDO catalyzes the oxidative cleavage of the pyrrole ring of the indole nucleus of tryptophan to yield N′-formylkynurenine. The assays were performed at room temperature as described in the literature using 95 nM IDO and 2 mM D-Trp in the presence of 20 mM ascorbate, 5 μM methylene blue and 0.2 mg/mL catalase in 50 mM potassium phosphate buffer (pH 6.5). The initial reaction rates were recorded by continuously following the absorbance increase at 321 nm due to the formation of N′-formlylkynurenine. See: Sono, M., Taniguchi, T., Watanabe, Y., and Hayaishi, O. (1980) J. Biol. Chem. 255, 1339-1345. […] The symbol “+” indicates […]. The symbol “+++” indicates IC50>[…]

T1 sequence (P14902 whole entry): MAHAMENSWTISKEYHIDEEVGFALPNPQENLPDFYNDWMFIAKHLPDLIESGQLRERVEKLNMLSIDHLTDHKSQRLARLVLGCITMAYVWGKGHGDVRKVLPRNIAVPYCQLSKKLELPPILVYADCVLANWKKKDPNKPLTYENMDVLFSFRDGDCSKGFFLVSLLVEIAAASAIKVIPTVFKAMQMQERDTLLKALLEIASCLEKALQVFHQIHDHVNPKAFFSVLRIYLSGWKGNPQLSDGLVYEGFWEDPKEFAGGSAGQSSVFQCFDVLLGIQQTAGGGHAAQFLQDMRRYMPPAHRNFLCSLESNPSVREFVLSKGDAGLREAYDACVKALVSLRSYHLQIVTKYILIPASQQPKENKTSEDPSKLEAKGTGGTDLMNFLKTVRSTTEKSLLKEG

IC50, > 10 µM:
COc1ccc(CNc2nccnc2C(=NO)Nc2cccc(C(F)(F)F)c2)cc1 [Example 1, NA-Hydroxy-3-[(4-methoxybenzyl)amino]-N-[3-(trifluoromethyl)phenyl]-pyrazine-2-carboximidamide]
Nc1nccnc1C(=NO)Nc1cccc(C(F)(F)F)c1 [Example 2, 3-Amino-N′-hydroxy-N-[3-(trifluoromethyl)phenyl]pyrazine-2-carboximidamide]
Nc1nccnc1C(=NO)Nc1ccc(F)c(C(F)(F)F)c1 [Example 4, 3-amino-N′-hydroxy-N-[3-(tri-fluoromethyl), 4-fluorophenyl]-pyrazine-2-carboximidamide]
COc1ccc(CNc2nccnc2C(=NO)Nc2ccc(F)c(Cl)c2)cc1 [Example 5]
Nc1nccnc1C(=NO)Nc1ccc(F)c(Cl)c1 [Example 6, 3-amino-N′-hydroxy-N-[3-chloro,4-fluorophenyl]pyrazine-2-carbox-imidamide]
ON=C(Nc1cccc(C(F)(F)F)c1)c1cnccn1 [Example 7, N′-hydroxy-N-[3-(trifluoromethyl)-phenyl]pyrazine-2-carbox-imidamide]
ON=C(Nc1cccc(C(F)(F)F)c1)c1cccnc1 [Example 8, N′-hydroxy-N-[3-(trifluoromethyl)-phenyl]pyridine-3-carbox-imidamide]
ON=C(Nc1ccc(F)c(Cl)c1)c1cccc(Oc2ccccc2)c1 [Example 10, N-(3-chloro-4-fluorophenyl)-N′-hydroxy-3-phenoxybenzene-carboximidamide]
Cc1ccc(Cl)cc1CNC(=NO)c1cccnn1 [Example 13, N-(5-chloro-2-methylbenzyl)-N′-hydroxypyridazine-3-carboximidamide]
